Experimental findings from PMC9154793, “Design, synthesis, and biological evaluation of triazole-pyrimidine-methylbenzonitrile derivatives as dual A2A/A2B adenosine receptor antagonists” (Journal of Enzyme Inhibition and Medicinal Chemistry, 2022) are described below.

The target of one data set is human A2A AR (Homo sapiens, UniProt P29274). Put plainly: cAMP functional assay in CHO-K1/ADORA2A/Gα15 cells (NECA-stimulated, HTRF).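 For all read-outs here: inhibition of NECA-driven intracellular cAMP build-up in the A2A-expressing cells, quantified with cAMP-d2 plus Eu3+-labelled anti-cAMP detection reagent.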 As to conditions: relative to ZM241385 at 1 μM, mean ± SEM; for inhibition at 0.01 µM / inhibition at 0.1 µM / inhibition at 1 µM: CHO-K1; for inhibition at 0.01 µM: read-out: hA2A AR (%) inhibition of cAMP, 10 nM; for inhibition at 0.1 µM: read-out: hA2A AR (%) inhibition of cAMP, 100 nM; for inhibition at 1 µM: read-out: hA2A AR (%) inhibition of cAMP, 1000 nM. In kind it is cell-based. (In general: Time-resolved FRET reads energy transfer from a long-lived donor to a nearby acceptor.)
Chain of human A2A AR (P29274 whole entry): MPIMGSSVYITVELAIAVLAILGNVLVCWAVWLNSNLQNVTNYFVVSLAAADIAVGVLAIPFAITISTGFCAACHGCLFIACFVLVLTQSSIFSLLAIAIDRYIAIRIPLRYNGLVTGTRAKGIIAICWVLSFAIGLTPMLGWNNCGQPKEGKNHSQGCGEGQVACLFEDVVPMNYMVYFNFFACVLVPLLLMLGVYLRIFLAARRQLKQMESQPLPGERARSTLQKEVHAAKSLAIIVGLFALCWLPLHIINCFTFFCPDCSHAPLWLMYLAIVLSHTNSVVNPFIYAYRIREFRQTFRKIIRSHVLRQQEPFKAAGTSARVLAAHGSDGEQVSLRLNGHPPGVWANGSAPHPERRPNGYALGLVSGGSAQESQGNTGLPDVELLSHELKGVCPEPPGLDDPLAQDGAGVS

The target of another data set is T1, human A2B AR (Homo sapiens, UniProt P29275).
T1 sequence (P29275 1-332): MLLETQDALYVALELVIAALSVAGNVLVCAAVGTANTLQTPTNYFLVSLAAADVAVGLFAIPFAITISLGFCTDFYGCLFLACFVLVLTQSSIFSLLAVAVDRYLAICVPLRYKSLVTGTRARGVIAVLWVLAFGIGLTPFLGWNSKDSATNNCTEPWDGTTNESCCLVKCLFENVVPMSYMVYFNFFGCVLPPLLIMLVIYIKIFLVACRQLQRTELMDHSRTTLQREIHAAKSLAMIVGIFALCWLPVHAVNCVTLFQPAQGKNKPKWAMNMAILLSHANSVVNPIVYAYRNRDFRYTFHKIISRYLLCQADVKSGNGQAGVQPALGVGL
Put plainly: cAMP functional assay in CHO-K1/ADORA2b/Gα15 cells (NECA-stimulated, HTRF). In kind it is cell-based. Conditions: compound at 100 nM, relative to ZM241385 at 1 μM, mean ± SEM; for inhibition at 0.1 µM: CHO-K1, read-out: hA2B AR (%) inhibition of cAMP, 100 nM.

A short description of data set [1]: Metabolic stability in human liver microsomes. It counts as in vitro ADME. As for the experimental part:
(§1) The metabolic stability is an important focus for further compound optimisation. Compounds 7f, 7i, and AB928 were chosen to evaluate the stability in rat liver microsomes and human liver microsomes. For the microsomal metabolic experiment, 7-ethoxycoumarin (7-EC) was used as a control. As shown in Table 4 (see Supporting information for raw data), the CLint(liver) of 7-EC in rats and humans was 10.0 and 9.0 ml/min/g liver, respectively, indicating the experimental test system was reliable.
(§2) Metabolic stabilities of compounds 7f, 7i, and AB928 in liver microsomes were studied with pooled human (male) liver microsomes solution (20 mg/ml) and male Sprague–Dawley rats pooled liver microsomes solution (20 mg/ml) purchased from Research Institute for Liver Diseases (Shanghai) Co. Ltd. Both liver microsomes solutions (140 μl) were diluted by 3948 μl of water and 280 μl of phosphate buffered saline. The assay procedure: 640 μl of diluted liver microsomes solution was added to a solution of compound working solution (16 μl, 25 μM in DMSO) and the mixed solution was incubated at 37 °C for 5 min. Then 160 μl of NADPH generating system was added and take out 100 μl from the mixed solution was added 200 μl of acetonitrile solution to stop the reaction at the set incubation time (0 min, 10 min, 20 min, 30 min, 40 min, 50 min, and 60 min). All stopped reaction solutions were vortex mixed (3 min) and centrifuged (10,000 rpm, 4 °C for 10 min). Then 50 μl of the supernatant was analysed by UPLC-MS/MS system (details of the analytical method see Supporting information). […]
(§3) 8. Metabolic stability in human and rat liver microsomes
(§4) Metabolic stabilities of compounds 7f, 7i and AB928 in liver microsomes were studied with pooled human (male) liver microsomes solution (20 mg/mL) and male Sprague - Dawley rats pooled liver microsomes solution (20 mg/mL) purchased from Research Institute for Liver Diseases (Shanghai) Co. Ltd. Both liver microsomes solutions (140 μL) were diluted by 3948 μL of water and 280 μL of phosphate buffered saline. The assay procedure: 640 μL of diluted liver microsomes solution was added to a solution of compound working solution (16 μL, 25 μM in DMSO) and the mixed solution was […]
(§5) (1 picture or pasted object on this page, not shown here) […]
(§6) incubated at 37 ℃ for 5 min. Then 160 μL of NADPH generating system was added and take out 100 μL from the mixed solution was added 200 μL of acetonitrile solution to stop the reaction at the set incubation time (0 min, 10 min, 20 min, 30 min, 40 min, 50 min, and 60 min). All stopped reaction solutions were vortex mixed (3 min) and centrifuged (10000 rpm, 4 ℃ for 10 min). Then 50 μL of the supernatant was analyzed […]
(§7) 8.2 Chromatography and mass spectrometry conditions
(§8) UPLC was performed using an […] UPLC system (Waters, Milford, MA, […]
(§9) USA). Separation was achieved on a Waters BEH C18 column(100 mm × 2.1 mm， 1.7 μm) at 40 ℃. The injection volume of the sample solution was 5 μL. The mobile phase consisted of water (0.1% formic acid and ammonium acetate) and acetonitrile solution (20:80, v/v) at a flow rate of 0.4 mL/min within a running time of 6 min. Mass spectrometric analysis was performed on a Waters Xevo TQ-S triple quadrupole instrument using electrospray ionization in positive mode. Quantification was performed using multiple reaction monitoring (MRM) mode to monitor precursor-product ion transitions (Table S1).
(§10) Table S1. Conditions of MRM Detection. […]
(§11) Table S2. Raw data of metabolic stability in human and rat liver microsomes. […]
(§12) (min) Hum Rat Hum Rat Hum Rat Hum Rat
(§13) 9. Analytical method of pharmacokinetics assay
(§14) Animal experiments were performed according to the institutional ethical guidelines on animal care and approved by the Institute Animal Care and Use Committee at Binzhou […]
(§15) Female Bal b/c mice (sourced from Jinan Pengyue Experimental Animal Breeding […]
A general note: Liver microsomes are vesicles of endoplasmic reticulum, rich in cytochrome P450 enzymes.

A short description of data set [2]: Metabolic stability in rat liver microsomes. It counts as in vitro ADME, Sprague–Dawley rats. Here is the method: as §1, §2, §3, §4, §5, §6, §7, §8, §9, §10, §11, §12, §13, §14, §15

Method for human A2A AR: (§16) In the cAMP assay, CHO-K1/ADORA2A/Gα15 cells expressing human A2A AR and CHO-K1/ADORA2b/Gα15 cells expressing human A2B AR were activated by 5′-(N-ethylcarboxamido)adenosine (NECA) and triggered the accumulation of intracellular cAMP concentration.
(§17) CHO-K1/ADORA2A/Gα15 cells expressing human A2A AR and CHO-K1/ADORA2b/Gα15 cells expressing human A2B AR were both constructed by Genscript Biotech Corporation. […] The test stock solutions were diluted with different gradients for use. The procedure was exemplified by the cAMP functional assay on the A2A receptor: 10,000 cells/well of CHO-K1/ADORA2A/Gα15 were seeded in a 384-well plate in 20 μl of assay buffer. […] Then, 10 μl of detection reagent (cAMP-d2 and anti-cAMP-Eu3+) was added into each well of the plate and incubated at room temperature for 1 h.
Method for human A2B AR: as §16, §17

In the case of “3-(2-Amino-6-(1-((6–(2-(hydroxymethyl)pyrrolidine-1-carbonyl)pyridin-2-yl)methyl)-1H-1,2,3-triazol-4-yl)pyrimidin-4-yl)-2-methylbenzonitrile [Compound 7l]”, the “hA2A AR (%) inhibition of cAMP, 10 nM” value at human A2A AR (compound at 10 nM) came to 13.46 ± 3.71%. Further, the “hA2A AR (%) inhibition of cAMP, 100 nM” value at human A2A AR (compound at 100 nM) stood at 52.3 ± 8.46%. Moreover, the “hA2A AR (%) inhibition of cAMP, 1000 nM” value at human A2A AR (compound at 1000 nM) was determined as 89.66 ± 1.31%. At human A2B AR, the “hA2B AR (%) inhibition of cAMP, 100 nM” value stood at 84.34 ± 4.72%.
In general, amount remaining refers to what is left of the initial amount, in per cent. Take `CCOc1ccc2ccc(=O)oc2c1` [Compound 7-EC, 7-ethoxycoumarin, reference compound]: in data set [1] (human, microsomes), the “CLint(liver) Hum” value is listed as 9.0 mL/min/g. The half-life at 0.49 µM came out at 8.12 min in data set [1] (male, human, microsomes) and 7.26 min in data set [2] (male, Sprague-Dawley, rat, pooled rat liver microsomes, read-out: T1/2 Rat). Also, the fraction remaining at 20 min, 0.49 µM in data set [1] (male, human, microsomes) came to 11.5%; in data set [2] (male, Sprague-Dawley, pooled rat liver microsomes, rat liver microsomes, 20 min), 23%. The share remaining at 0.5 h, 0.49 µM turned out to be 3.54% in data set [1] (male, human, microsomes) and 10.4% in data set [2] (male, Sprague-Dawley, pooled rat liver microsomes, rat liver microsomes, 30 min). Moreover, the amount remaining at 40 min, 0.49 µM in data set [1] (male, human, microsomes) came out at 1.6%; in data set [2] (male, Sprague-Dawley, pooled rat liver microsomes, rat liver microsomes, 40 min), 2.98%. In addition, the amount remaining at 50 min, 0.49 µM in data set [1] (male, human, microsomes) was found to be 0.97%; in data set [2] (male, Sprague-Dawley, pooled rat liver microsomes, rat liver microsomes, 50 min), 1.02%. Further, the amount remaining at 1 h, 0.49 µM was 0.72% in data set [1] (male, human, microsomes) and 0.35% in data set [2] (male, Sprague-Dawley, pooled rat liver microsomes, rat liver microsomes, 60 min, read-out: Remaining (%, T = 60min) Rat). The fraction remaining at 10 min, 0.49 µM stood at 34% in data set [1] (male, human liver microsomes, 10 min, read-out: %Remaining Hum, 10 min) and 49% in data set [2] (male, Sprague-Dawley, pooled rat liver microsomes, rat liver microsomes, 10 min). For the same compound, in data set [2] (rat liver microsomes), the “CLint(liver) Rat” value stood at 10.0 mL/min/g.
As usually defined, the inhibition is the drop in the measured response relative to a control, in per cent. The melting point is the temperature, or range, at which the solid turns liquid. The compound `Cc1c(C#N)cccc1-c1cc(-c2cn(Cc3ccc4ccccc4n3)nn2)nc(N)n1` [Compound 7a, 3-(2-Amino-6–(1-(quinolin-2-ylmethyl)-1H-1,2,3-triazol-4-yl)pyrimidin-4-yl)-2-methylbenzonitrile] displayed a melting point of 203 to 204 °C. Also, the inhibition at 0.01 µM on human A2A AR (compound at 10 nM) is 28.2 ± 8.79%. Besides, on human A2A AR (compound at 100 nM), the inhibition at 0.1 µM was 16.5 ± 1.9%. The inhibition at 1 µM on human A2A AR (compound at 1000 nM) worked out at 43.5 ± 0.77%. Moreover, the inhibition at 0.1 µM on human A2B AR stood at 3.51 ± 3.19%.
For `Cc1c(C#N)cccc1-c1cc(-c2cn(Cc3ccc4cccc(N)c4n3)nn2)nc(N)n1` [Compound 7c, 3-(2-amino-6-(1-((8-aminoquinolin-2-yl)methyl)-1H-1,2,3-triazol-4-yl)pyrimidin-4-yl)-2-methylbenzonitrile], in that order: 268 to 269 °C, 35.9 ± 5.39%, 38.2 ± 10.8%, 48.5 ± 1.45% and 85.43 ± 0.04%.
For the compound `COC(=O)c1cccc(Cn2cc(-c3cc(-c4cccc(C#N)c4C)nc(N)n3)nn2)n1` [Compound 7d, Methyl 6-((4-(2-amino-6-(3-cyano-2-methylphenyl)pyrimidin-4-yl)-1H-1,2,3-triazol-1-yl)methyl)picolinate], the melting point lay within 105 to 106 °C. Moreover, the inhibition at 0.01 µM at human A2A AR (compound at 10 nM) came to 40.8 ± 9.01%. The inhibition at 0.1 µM at human A2A AR (compound at 100 nM) came to 63.4 ± 1.39%. In addition, the inhibition at 1 µM at human A2A AR (compound at 1000 nM) amounted to 91.3 ± 4.28%. Moreover, the inhibition at 0.1 µM at human A2B AR turned out to be 80.3 ± 1.84%.
For `Cc1c(C#N)cccc1-c1cc(-c2cn(Cc3cccc(C(=O)OC(C)C)n3)nn2)nc(N)n1` [Compound 7e, Isopropyl 6-((4-(2-amino-6-(3-cyano-2-methylphenyl)pyrimidin-4-yl)-1H-1,2,3-triazol-1-yl)methyl)picolinate], in that order: 128 to 129 °C, 45 ± 1.25%, 50.7 ± 5.51%, 67.8 ± 4.91% and 82.5 ± 7.81%.
As for `Cc1c(C#N)cccc1-c1cc(-c2cn(Cc3cccc(-c4ncc[nH]4)n3)nn2)nc(N)n1` [Compound 7g, 3-(6-(1-((6-(1H-imidazol-2-yl)pyridin-2-yl)methyl)-1H-1,2,3-triazol-4-yl)-2-aminopyrimidin-4-yl)-2-methylbenzonitrile], the melting point was 139 to 140 °C. Moreover, on human A2A AR (compound at 10 nM), the inhibition at 0.01 µM was found to be 19.6 ± 2.13%. Further, the inhibition at 0.1 µM on human A2A AR (compound at 100 nM) is 56 ± 2.03%. The inhibition at 1 µM at human A2A AR (compound at 1000 nM) stood at 107.3 ± 0.89%. The inhibition at 0.1 µM on human A2B AR was determined as 52.9 ± 3.96%.
For `Cc1c(C#N)cccc1-c1cc(-c2cn(Cc3cccc(C(=O)O)n3)nn2)nc(N)n1` [Compound 7h, 6-((4-(2-amino-6–(3-cyano-2-methylphenyl)pyrimidin-4-yl)-1H-1,2,3-triazol-1-yl)methyl)picolinic acid], in that order: 176 to 177 °C, 37.9 ± 2.32%, 55.2 ± 4.27%, 92.6 ± 1.91% and 54.8 ± 2.09%.
`Cc1c(C#N)cccc1-c1cc(-c2cn(Cc3cccc(C(=O)NCCO)n3)nn2)nc(N)n1` [Compound 7j, 6-((4-(2-Amino-6-(3-cyano-2-methylphenyl)pyrimidin-4-yl)-1H-1,2,3-triazol-1-yl)methyl)-N-(2-hydroxyethyl)picolinamide] yielded a melting point of 208 to 209 °C. At human A2A AR (compound at 10 nM), the inhibition at 0.01 µM was 22.4 ± 6.68%. Besides, the inhibition at 0.1 µM on human A2A AR (compound at 100 nM) worked out at 82.2 ± 1.26%. Moreover, the inhibition at 1 µM on human A2A AR (compound at 1000 nM) is 101 ± 4.62%. Further, at human A2B AR, the inhibition at 0.1 µM turned out to be 82.4 ± 4.52%.
Consider `Cc1c(C#N)cccc1-c1cc(-c2cn(Cc3cccc(C(=O)N4CC(O)C4)n3)nn2)nc(N)n1` [Compound 7k, 3-(2-Amino-6-(1-((6–(3-hydroxyazetidine-1-carbonyl)pyridin-2-yl)methyl)-1H-1,2,3-triazol-4-yl)pyrimidin-4-yl)-2-methylbenzonitrile], for which the inhibition at 0.01 µM on human A2A AR (compound at 10 nM) is 21.7 ± 5.43%. Also, the inhibition at 0.1 µM stood at 70.5 ± 6.37% at human A2A AR (compound at 100 nM) and 78.3 ± 2.66% at human A2B AR. Further, on human A2A AR (compound at 1000 nM), the inhibition at 1 µM came out at 94.9 ± 2.05%.
Regarding `COc1cccc(Cn2cc(-c3cc(-c4cccc(C#N)c4C)nc(N)n3)nn2)c1` [Compound 7m, 3-(2-Amino-6-(1-(3-methoxybenzyl)-1H-1,2,3-triazol-4-yl)pyrimidin-4-yl)-2-methylbenzonitrile], the melting point is 163 to 164 °C. Further, the inhibition at 0.01 µM on human A2A AR (compound at 10 nM) amounted to 21.5 ± 4.32%. On human A2A AR (compound at 100 nM), the inhibition at 0.1 µM was determined as 28.6 ± 4.03%. Further, on human A2A AR (compound at 1000 nM), the inhibition at 1 µM is 69.6 ± 1.01%. Further, the inhibition at 0.1 µM at human A2B AR worked out at 69.4 ± 4.01%.
